Measurements: patent publication US20090118479A1, “Azo compound, ink composition, recording method and colored article” (priority 2005, published 2009)

Assay: solubility of the azo compound (to water)
Type: physicochemical
Excerpt: The azo compound of the present invention can be used directly or in formulation with an appropriate carrier or the like, as a colorant for various kinds of articles. […] Said water-based composition is useful as a colorant for various kinds of articles. For example, said water-based composition can dye a material composed of cellulose. In addition, it can dye other materials having carbonamide bonds and widely used for dyeing of leather, textile and paper. Meanwhile, a typical use of the compound of the present invention includes an ink composition prepared by dissolving it in a liquid medium.

SMILES	solubility
Cc1cc(N=Nc2c(S(=O)(=O)O)cc3c(S(=O)(=O)O)c(N=Nc4c(S(=O)(=O)O)cc5c(S(=O)(=O)O)c(N=Nc6cc(S(=O)(=O)O)c7cc(S(=O)(=O)O)c(N=Nc8ccc([N+](=O)[O-])cc8S(=O)(=O)O)c(O)c7c6N)ccc5c4O)ccc3c2O)c(OCCCS(=O)(=O)O)cc1N=Nc1cc(S(=O)(=O)O)cc2cc(S(=O)(=O)O)cc(O)c12 [compound No. 13]	≥ 100 mg/mL
Nc1c(N=Nc2ccc3c(O)c(N=Nc4ccc5c(O)c(N=Nc6ccc(N=Nc7ccc(S(=O)(=O)O)cc7)cc6S(=O)(=O)O)c(S(=O)(=O)O)cc5c4S(=O)(=O)O)c(S(=O)(=O)O)cc3c2S(=O)(=O)O)cc(S(=O)(=O)O)c2cc(S(=O)(=O)O)c(N=Nc3ccc(S(=O)(=O)O)cc3[N+](=O)[O-])c(O)c12 [compound No. 2]	≥ 100 mg/mL
